Measurements published in patent US20240052582A1, “COMPOSTABLE TURF WITH DECOMPOSITION INHIBITOR” (Polytex Sportbelage Produktions-GmbH, priority 2017, published 2024).

Test: Amount of decomposition inhibitor necessary for a minimum life expectancy of compostable artificial or hybrid turf
Details: inhibitor within backing
Excerpt: Due to the wide variety of use case scenarios, stadium architectures and climatic conditions, the amount of decomposition inhibitor that ensures a sufficient life expectancy without unduly delaying the decomposition process is preferably determined empirically.

Oc1cc(Cl)ccc1Oc1ccc(Cl)cc1Cl [Triclosan, 5-chlor-2-(2,4-dichlorphenoxy)-phenol]
Amount of Decomposition inhibitor necessary for a life expectancy of the turf material of at least [. . .] 6 Month (life expectancy at least 6 Month): 0.0005% by % by weight of backing
Amount of Decomposition inhibitor necessary for a life expectancy of the turf material of at least [. . .] 12 Month (life expectancy at least 12 Month): 0.001% by % by weight of backing
